Test results: US12520840B2, “Method for reducing parasite burden in a mosquito” (PRESIDENT AND FELLOWS OF HARVARD COLLEGE, priority 2018, dated 2026)
“Also recorded” adds a separate entry of the source.

Tests used:
P. falciparum = assay: Plasmodium falciparum infection assay in An. gambiae females after tarsal exposure to a compound-coated surface (oocyst prevalence and intensity); assay type: in vivo, Plasmodium falciparum (NF54) in Anopheles gambiae; settings: for effect on prevalence of P. falciparum relative to controls / reduction of oocyst prevalence relative to controls: 1 mmol/m2, 6 minutes exposure
Protocol: (§1) Compound Exposures. Compounds (ATQ, ACE, HYD, PYR, PER, Millipore-Sigma, St. Louis, MO, USA) to be tested were dissolved in a suitable, volatile vehicle (Table S1) at stock concentrations of 3-10 mg/ml (0.3-1% w/v). Working concentrations of each compound were created through serial dilutions. To generate a compound-coated surface, a volume of working solution containing a known quantity of compound was added to 1 ml excess vehicle and transferred to a 6 cm diameter glass petri dish ([…]). Treated dishes were placed on a lateral shaker and left for 4 h or overnight until evaporation of the volatile vehicle, coating the compound to the glass substrate. Control plates were treated identically using only the acetone vehicle. A translucent plastic cup was placed over the coated surface to contain mosquitoes during exposure. A flap was cut into the base of the cup to allow the introduction of mosquitoes. Plates were used for 1 d and discarded. For exposures, 15-25 mosquitoes were introduced through the cup flap using a mouth aspirator and incubated on the treated surface for 6-60 min depending on the experimental parameters. Exposure plates were agitated once during exposure to discourage resting on the untreated walls and base of the cup. After exposure, plates were transferred to a clean 17.5 cm^3 cage (Bugdorm™, Megaview Science. Co. Taiwan).
Plasmodium falciparum Infection Assays. 5-d old An. gambiae females were exposed to compounds as described above. Immediately after exposure, females were transferred to a sealed, secure infection glovebox and provided an in vitro culture P. falciparum (NF54) gametocytes (1, 2) through a custom made, glass, water-heated membrane feeder. […] At 7-9 d post infectious blood meal (pIBM), females that had blood fed were vacuum aspirated into 80% ethanol, incubated for 10 minutes at −20° C., and transferred out of the secure feeding box into PBS on ice. Midguts were dissected out in PBS and stained with 0.2% w/v mercurochrome (in ddH2O) for 17 minutes. After staining, midguts were mounted on glass microscope slides in 0.02% w/v mercurochrome, and oocyst prevalence and intensity were determined by examination at 40× air objective on an inverted compound light microscope (Olympus Corporation, Waltham, MA).
Statistical Analysis. All statistical analyses were carried out using GraphPad Prism v7.0 for MacOSX (GraphPad Software Inc., La Jolla CA, USA). For infections, differences in prevalence were analyzed by Chi^2. In experiments where both treatment groups had individuals that produced >0 oocysts, differences in median oocyst burden between groups (intensity of infection) was analyzed using a Mann-Whitney Mean Ranks test. For multiple comparisons (e.g. FIG. 3) differences in prevalence between multiple groups were determined using pair-wise Chi^2 corrected for multiple comparisons (Bonferroni). Similarly, multiple comparisons of intensity were carried out using Wilcoxon with Dunn's post hoc. To determine IC50 from dose-response data, the mean relative inhibition (ATQ exposed prevalence/Control prevalence) was calculated for each tested dose and fit with a sigmoidal curve function using non-linear regression.

An. gambiae females = assay: Survival assays of An. gambiae females after compound exposure (acute 48 h and long-term); assay type: in vivo, Anopheles gambiae; settings: for proportionate survival relative to controls: 1 mmol/m2, 60 minutes exposure, 48 h after exposure
Protocol: as §1
Survival Assays. To assess acute survival following exposure: 40, females were exposed (as described above) to ATQ, PYR, ACE, HYD permethrin (PER) for 1 h at a dosage of 1 mmol/m^2 for each compound. […] Immediately after exposure, each treatment group was transferred to a 500 ml paper cup and provided with glucose. At 48 h post exposure the proportion of surviving mosquitoes in each group was determined. Differences in survival between control and compound-exposed mosquitoes were detected using Chi^2 analysis. For long-term survival, ˜100 ATQ- or control-exposed females were placed in clean 17.5 cm^3 cages (Bugdorm™, Megaview Science. Co., Taiwan). Water and a 10% w/v glucose solution was provided ad libitum. Cages were checked daily for mortality, and dead mosquitos were removed and counted. Each experiment continued until all mosquitoes had died. Differences in median time-to-death between ATQ and control treatment groups were analyzed using a Log-Rank Mantell-Cox test.

[1] = test system: susceptible An. gambiae mosquitoes; settings: 60-minute tarsal exposure; cited from earlier work
[2] = 10 μmol/m^2, 60 minutes exposure
[3] = 1 mmol/m2, 60 minutes exposure immediately prior to infection

Structure (SMILES)	effect on prevalence of P. falciparum relative to controls (P. falciparum)	proportionate survival relative to controls (An. gambiae females)	reduction of oocyst prevalence relative to controls (P. falciparum)	further results
CCCCCCCCCCOc1cc2c(O)c(C(=O)OCC)cnc2cc1OCC [DEC, decoquinate]	no detectable effect on infection; also recorded: Neither compound is capable of reducing the prevalence	1.084		
O=C1C(O)=C([C@H]2CC[C@H](c3ccc(Cl)cc3)CC2)C(=O)c2ccccc21 [ATQ, atovaquone]		0.975		inhibition of intensity of infection compared to controls (P. falciparum; [2]): 87.5%; inhibition of prevalence of infection compared to controls (P. falciparum; [2]): 87.6%; oocyst intensity (P. falciparum; 100 μmol/m2, 6 min exposure): 0%; prevalence of infection (P. falciparum oocysts) (P. falciparum; 100 μmol/m2, 6 min exposure): 0%; oocyst intensity (P. falciparum; 1 mmol/m2, 6 min exposure): 0%; prevalence of infection (P. falciparum oocysts) (P. falciparum; 1 mmol/m2, 6 min exposure): 0%; oocyst intensity (P. falciparum; [3]): 0%; prevalence of infection (P. falciparum oocysts) (P. falciparum; [3]): 0%; IC50 of pre-infection exposure (surface concentration; prevalence of infection) (P. falciparum; 60 minutes tarsal exposure, interpolated from dose-response curve): 1.77 μmol/m^2; effect on acute or long-term survival of An. gambiae females (An. gambiae females; ATQ- vs control-exposed females, followed until death): no effect
CCc1nc(N)nc(N)c1-c1ccc(Cl)cc1 [PYR, pyrimethamine]		1.000		
CC1(C)CNC(=NN=C(/C=C/c2ccc(C(F)(F)F)cc2)/C=C/c2ccc(C(F)(F)F)cc2)NC1 [HYD, hydramethylnon]	strongly reduced prevalence	0.976	63.9%	
CC1(C)C(C=C(Cl)Cl)C1C(=O)OCc1cccc(Oc2ccccc2)c1 (stereo not shown) [permethrin]		0.055		LC50 [1]: 63 μmol/m^2
CCCCCCCCCCCCC1=C(OC(C)=O)C(=O)c2ccccc2C1=O [ACE, acequinocyl]	strongly reduced prevalence	1.059	64.3%	
